In one experiment the test system is S. aureus ATCC 13709. Kind of experiment: MIC, S. aureus ATCC 13709 (Alamar Blue broth microdilution). Format: cell-based. Particulars: Alamar Blue read after overnight incubation at 35° C.; for MIC: Staphylococcus aureus, ATCC13709, S. aureus; for MIC Sa: S. aureus. Background: Resazurin is reduced to fluorescent resorufin, in cell work by metabolically active cells.

Another experiment relates to E. coli ATCC 25922. Nature of the experiment: MIC, E. coli ATCC 25922. Format: cell-based. Particulars: Alamar Blue read after overnight incubation at 35° C.; for MIC: Escherichia coli, ATCC25922, E. coli; for MIC Ec: E. coli.

Converted amounts (≈) assume the structure as drawn.

By MIC is commonly meant the lowest concentration found to suppress growth. For `CNc1cccc2c1[nH]c1nc(Sc3ccc4ccc(C(=O)O)nc4c3)nc(N3CC4C(N)C4C3)c12` (stereo not shown) [1.74], the MIC against S. aureus ATCC 13709 was 4 µg/mL (≈ 8.04 µM); against E. coli ATCC 25922, > 64 µg/mL.
The matching figures for `COc1cccc2c1[nH]c1nc(Sc3cnc4cccnc4c3)nc(N3CC4C(N)C4C3)c12` (stereo not shown) [1.75]: ≤ 0.5 µg/mL and > 64 µg/mL.
Taken in the same sequence, the figures for `COc1cccc2c1[nH]c1nc(Sc3cnc4nccnc4c3)nc(N3CC4C(N)C4C3)c12` (stereo not shown) [1.76] were 1 µg/mL (≈ 2.19 µM) and > 64 µg/mL.
On to `COc1cccc2c1[nH]c1nc(Sc3cnc4ccc[n+]([O-])c4c3)nc(N3CC(N)C3)c12` [1.77], for which the MIC is 2 µg/mL (≈ 4.49 µM) in the experiment on S. aureus ATCC 13709 and > 64 µg/mL with E. coli ATCC 25922.
Taken in the same sequence, the figures for `COc1cccc2c1[nH]c1nc(Sc3cnc4ccc[n+]([O-])c4c3)nc(N3CC[C@@H](N)C3)c12` [1.78] were ≤ 0.5 µg/mL and 64 µg/mL (≈ 139 µM).
For `CNNc1cc(F)cc2c1[nH]c1nc(Oc3cnc(C)nc3)nc(N3CC4C(N)C4C3)c12` (stereo not shown) [2.1], in the experiment with S. aureus ATCC 13709, the “MIC Sa” value was ≤0.5 µg/mL. Also, the “MIC Ec” value with E. coli ATCC 25922 is >16 µg/mL.
Take `CCc1cc(F)cc2c1[nH]c1nc(Oc3cncnc3)nc(N3CC4C(N)C4C3)c12` (stereo not shown) [2.2]: the results for the MIC against S. aureus ATCC 13709 and against E. coli ATCC 25922 were 2 µg/mL (≈ 4.93 µM) and 4 µg/mL (≈ 9.87 µM), respectively.
For the compound `CCc1cc(F)cc2c1[nH]c1nc(Oc3cnc(C)nc3)nc(N3CC(N)C4(CC4)C3)c12` (stereo not shown) [2.3], the figures for the MIC in the experiment with S. aureus ATCC 13709 and in the experiment with E. coli ATCC 25922 were 1 µg/mL (≈ 2.31 µM) and 16 µg/mL (≈ 36.9 µM), respectively.
Turning to `CCc1cc(F)cc2c1[nH]c1nc(Oc3cnc(C)nc3)nc(N3CC4CC(N)C4C3)c12` (stereo not shown) [2.4], the values for the MIC in the experiment on S. aureus ATCC 13709 and with E. coli ATCC 25922 were ≤ 0.5 µg/mL and 1 µg/mL (≈ 2.31 µM), respectively.
As for `CCc1cc(F)cc2c1[nH]c1nc(Oc3cncnc3)nc(N3CC4CC(N)C4C3)c12` (stereo not shown) [2.5], in the experiment with S. aureus ATCC 13709, the “MIC Sa” value was ≤0.5 µg/mL. Further, in the experiment on E. coli ATCC 25922, the “MIC Ec” value was 2 µg/mL (≈ 4.77 µM).
For `Cc1cc(F)cc2c1[nH]c1nc(Oc3cncnc3)nc(N3CC4C(N)C4C3)c12` (stereo not shown) [2.7], the MIC against S. aureus ATCC 13709 is 4 µg/mL (≈ 10.2 µM); in the experiment on E. coli ATCC 25922, > 16 µg/mL.
In the case of `Nc1cccc2c1[nH]c1nc(Oc3cnc4cccnc4c3)nc(N3CC4C(N)C4C3)c12` (stereo not shown) [2.8], the “MIC Sa” value in the experiment on S. aureus ATCC 13709 was 16 µg/mL (≈ 37.7 µM). The “MIC Ec” value with E. coli ATCC 25922 was >64 µg/mL.
Regarding `Cc1ncc(Oc2nc(N3CC(N)C4(CC4)C3)c3c(n2)[nH]c2c(N)cc(F)cc23)cn1` (stereo not shown) [2.9], the “MIC Sa” value with S. aureus ATCC 13709 was 16 µg/mL (≈ 38.1 µM). In the experiment on E. coli ATCC 25922, the “MIC Ec” value was found to be 16 µg/mL (≈ 38.1 µM).
Consider `COc1cccc2c1[nH]c1nc(Oc3cncnc3)nc(N3CCC(N)C3)c12` (stereo not shown) [2.10], for which the “MIC Sa” value against S. aureus ATCC 13709 came out at 2 µg/mL (≈ 5.3 µM). Besides, in the experiment with E. coli ATCC 25922, the “MIC Ec” value stood at 32 µg/mL (≈ 84.8 µM).
`COc1cccc2c1[nH]c1nc(Oc3cncnc3)nc(N3CCC(NC(C)=O)C3)c12` (stereo not shown) [2.11]: the “MIC Sa” value against S. aureus ATCC 13709 is 4 µg/mL (≈ 9.54 µM). Also, in the experiment on E. coli ATCC 25922, the “MIC Ec” value is >64 µg/mL.
Taken in the same sequence, the figures for `COc1cccc2c1[nH]c1nc(Oc3cccc(C#N)c3)nc(N3CC4C(N)C4C3)c12` (stereo not shown) [2.12] were 16 µg/mL (≈ 38.8 µM) and >64 µg/mL.
The matching figures for `COc1cccc2c1[nH]c1nc(Oc3cncnc3)nc(N3CC4C(N)C4C3)c12` (stereo not shown) [2.13]: 2 µg/mL (≈ 5.14 µM) and 64 µg/mL (≈ 164 µM).
`COc1cccc2c1[nH]c1nc(Oc3cnc4cccnc4c3)nc(N3CC4C(N)C4C3)c12` (stereo not shown) [2.14]: the “MIC Sa” value against S. aureus ATCC 13709 turned out to be 1 µg/mL (≈ 2.28 µM). The “MIC Ec” value in the experiment on E. coli ATCC 25922 is >64 µg/mL.
For the compound `COc1cccc2c1[nH]c1nc(Oc3cncc(C#N)c3)nc(N3CC4C(N)C4C3)c12` (stereo not shown) [2.15], in the experiment on S. aureus ATCC 13709, the “MIC Sa” value was found to be 1 µg/mL (≈ 2.42 µM). Further, in the experiment on E. coli ATCC 25922, the “MIC Ec” value is >32 µg/mL.
For the compound `Cc1ncc(Oc2nc(N3CC4CC3C[C@@H]4N)c3c(n2)[nH]c2c(N)cc(F)cc23)cn1` (stereo partly shown) [2.160], the MIC in the experiment with S. aureus ATCC 13709 was found to be 8 µg/mL (≈ 19 µM); in the experiment with E. coli ATCC 25922, 16 µg/mL (≈ 38.1 µM).
For `CNc1cccc2c1[nH]c1nc(Oc3cncnc3)nc(N3CC4CC4(N)C3)c12` (stereo not shown) [3.1], the minimal inhibitory concentration (MIC) stood at 1 µg/mL (≈ 2.57 µM) in the experiment on S. aureus ATCC 13709 and 4 µg/mL (≈ 10.3 µM) against E. coli ATCC 25922.
Taken in the same sequence, the figures for `CNc1cccc2c1[nH]c1nc(Oc3cnc(OC)c(OC)c3)nc(N3CC[C@@H](N)C3)c12` [3.2] were 4 µg/mL (≈ 9.19 µM) and 16 µg/mL (≈ 36.7 µM).
The matching figures for `CNc1cccc2c1[nH]c1nc(Oc3cncc(C#N)c3)nc(N3CC[C@@H](N)C3)c12` [3.3]: 0.5 µg/mL (≈ 1.25 µM) and 1 µg/mL (≈ 2.5 µM).
Taken in the same sequence, the figures for `CNc1cccc2c1[nH]c1nc(Oc3cncnc3)nc(N3CC[C@@H](N)C3)c12` [3.4] were 0.5 µg/mL (≈ 1.33 µM) and ≤ 0.5 µg/mL.
Turning to `CNc1cccc2c1[nH]c1nc(Oc3cnc(C)nc3)nc(N3CC[C@@H](N)C3)c12` [3.5], the MIC is 0.25 µg/mL (≈ 0.64 µM) against S. aureus ATCC 13709 and ≤ 0.5 µg/mL in the experiment on E. coli ATCC 25922.
For `CNc1cccc2c1[nH]c1nc(Oc3cncc(F)c3)nc(N3CC[C@@H](N)C3)c12` [3.6], the figures for the MIC in the experiment with S. aureus ATCC 13709 and with E. coli ATCC 25922 were 0.5 µg/mL (≈ 1.27 µM) and 1 µg/mL (≈ 2.54 µM), respectively.
The matching figures for `CNc1cccc2c1[nH]c1nc(Oc3cncc(F)c3)nc(N3CC4CNC4C3)c12` (stereo not shown) [3.7]: 1 µg/mL (≈ 2.47 µM) and 4 µg/mL (≈ 9.87 µM).
The matching figures for `CNc1cccc2c1[nH]c1nc(Oc3cncnc3)nc(N3CC(N)C(O)C3)c12` (stereo not shown) [3.8]: 16 µg/mL (≈ 40.8 µM) and > 64 µg/mL.
Taken in the same sequence, the figures for `CNc1cccc2c1[nH]c1nc(Oc3cncnc3)nc(-c3cn[nH]c3)c12` [3.9] were 2 µg/mL (≈ 5.58 µM) and 32 µg/mL (≈ 89.3 µM).

The record behind these values is US10858360B2, “Tricyclic gyrase inhibitors” (priority 2011, dated 2020).
